{
  "source": "patent US20200316021A1",
  "about": "“Dosing Regimen of Siponimod” (NOVARTIS AG, priority 2017, published 2020)",
  "key": {"[1]": {"experiment": "siponimod single dose study (SAD study) in healthy volunteers", "format": "in vivo", "settings": "healthy subjects"}, "[2]": {"tested_on": "Absolute Lymphocyte Count (ALC)", "experiment": "multiple ascending dosing study (MAD study) in healthy subjects: decline of Absolute Lymphocyte Count", "format": "in vivo, human", "settings": "0.3 mg to 10 mg dose", "experimental": "(§1) In another study in healthy subjects siponimod was administered in multiple doses, i.e. 0.3, 1, 2.5, 10 and 20 mg, over 28 days (multiple ascending dosing study, MAD study).\nAmongst the various potential factors which may contribute to the reduction of inflammation, and which may therefore contribute to the efficacy of a treatment by siponimod, one important factor is the reduction of the Absolute Lymphocyte Count (ALC), being ALC known to play an important role in the inflammatory processes, including those in the brain. The exact mechanism by which an S1P receptor modulation may mitigate stroke pathophysiology is/still not fully elucidated and thus, besides the Absolute Lymphocyte Count related effect (ALC-related effect), other potential mechanisms may play a role."}, "[3]": {"experiment": "multiple ascending dosing study (MAD study) in healthy subjects: adverse events", "format": "in vivo, human", "settings": "20 mg multiple dose over 28 days", "experimental": "as §1"}, "[4]": {"experiment": "multiple-dose titration clinical study in healthy subjects: daily chronotropic effects (heart rate)", "format": "in vivo, human", "experimental": "S1P receptor modulators, as mentioned above, are known to cause dose dependent transient decrease in heart rate within 2-3 hours of drug intake (Legangneux et al 2012, Hoch et al 2014). In order to evaluate on how to best mitigate the bradyarrhythmic risk of siponimod, a multiple-dose titration clinical study in healthy subjects was run.\nThe primary objective of this study was to measure the daily chronotropic effects of two siponimod dose-titration regimens (from 0.25 mg to 10 mg; Dose Titration (DT) 1# and 2#, respectively) compared to daily chronotropic effects of oral siponimod 10 mg (fixed dose, once daily) and placebo over 12 days. The heart rate (HR) changes have been compared between subjects exposed to 10 mg siponimod once daily (QD) with or without 2 different up-titration schemes. The titration scheme of this study was: • DT 1#: Day 1: 0.25 mg; Day 2: 0.25 mg; Day 3: 0.25 mg; Day 4: 0.5 mg; Day 5: 1.0 mg; Day 6: 2.0 mg; Day 7: 4.0 mg; Day 8: 8.0 mg and from Day 9 to Day 12: 10.0 mg daily. • DT 2#: Day 1: 0.25 mg; Day 2: 0.25 mg; Day 3: 0.5 mg; Day 4: 0.75 mg; Day 5: 1.25 mg; Day 6: 2.0 mg; Day 7: 3.0 mg; Day 8: 5.0 mg; from Day 9 to Day 12: 10.0 mg daily.\nThis effect was maintained until end of treatment on Day 12. […] It was then concluded that both titration regimens effectively attenuated the initial bradycardia observed on Day 1 of treatment with siponimod 10 mg daily fixed-dose."}, "[5]": {"experiment": "phase II dose finding study in relapsing-remitting multiple sclerosis (CBAF312A2201), MRI brain lesion parameters", "format": "in vivo, human", "settings": "RRMS patients", "experimental": "In a phase II dose finding study of siponimod in patients with relapsing-remitting multiple sclerosis (CBAF312A2201) safety, tolerability and efficacy on magnetic resonance imaging (MRI) brain lesion parameters were evaluated. The dose response curve for the MRI-based efficacy of siponimod given orally once daily compared with placebo was determined.\nThe dose-response curve as defined by the primary endpoint, favored the upper part of this range, i.e. a dose in the range of siponimod 2 mg, since efficacy seemed to decrease with lower doses. Siponimod achieved positive results in a clinical trial for the treatment of RRMS patients (Selmaj et al., Lancet Neurol, 2013, 12, 756-767) and is currently being investigated in an ongoing phase III study (EXPAND) in patients with SPMS. The dose of 2 mg of siponimod was the chosen dose for this follow up phase III study."}, "[6]": {"experiment": "i.v. versus oral siponimod study in healthy subjects (absolute bioavailability): pharmacokinetics", "format": "in vivo, human", "experimental": "(§2) A comparison of bradyarrhythmic effects (H R, AVB, SP) of a 1 mg oral dose from previous studies and a 1 mg/day i.v. dose infused over 24 h in healthy subjects supported the hypothesis that such effects are related to the slope of the concentration-time curve.\nIn said study with siponimod administered intravenously, PK and PD were determined. […] This finding was consistent with previous oral administrations of 0.25 mg (starting dose of the oral initial period dosing regimen). The results of this clinical study were the following:\n(§3) The safety of the i.v. route in humans was supported by a local tolerance study in rabbit and cardiovascular safety studies in guinea pig, rat and rabbit using i.v. (bolus) route."}, "[7]": {"tested_on": "Absolute Lymphocyte Count (ALC)", "experiment": "i.v. versus oral siponimod study in healthy subjects: PD (ALC) effects", "format": "in vivo, human", "settings": "i.v. 0.25 mg over 3 hour and 1 mg over 24 hours vs oral doses at same dose levels", "experimental": "(§4) In said study with siponimod administered intravenously, PK and PD were determined. […] This finding was consistent with previous oral administrations of 0.25 mg (starting dose of the oral initial period dosing regimen)."}, "[8]": {"experiment": "i.v. siponimod study in healthy subjects: cardiac safety", "format": "in vivo, human", "settings": "i.v. 0.25 mg over 3 hours and 1 mg over 24 hours (4x0.25 mg/6 hours)", "experimental": "as §2, §4"}, "[9]": {"experiment": "clinical study of siponimod pharmacokinetics in CYP2C9 poor metabolizers", "format": "in vivo, human", "settings": "for AUC compared with reference AUC of extensive metabolizers (CYP2C9*1*1): poor metabolizers", "excerpt": "In addition to the previously described benefits, the dosing regimen of the present disclosure has also the advantage to highly reduce the additional risks run by the CYP2C9 poor metabolizer."}, "[10]": {"tested_on": "peripheral lymphocyte counts", "experiment": "reduction and recovery of peripheral lymphocyte counts", "format": "in vivo", "experimental": "(§5) Siponimod is a second generation S1 P receptor modulator that reduces peripheral lymphocyte counts approximately 4-6 hours (h) after the first dose. […] Siponimod's mode of action is believed to include S1P1-mediated prevention of effector lymphocyte recirculation from lymphatic tissue to sites of inflammation, such as the central nervous system (CNS). In addition, there may be direct beneficial effects in the CNS mediated by S1P1 and/or S1P5. […] Thus, siponimod may display additional beneficial activities in the CNS."}, "[11]": {"experiment": "half-life and brain penetration of siponimod", "settings": "in vivo", "experimental": "as §5"}, "[12]": {"experiment": "randomized, placebo-controlled clinical study of siponimod in ischemic stroke, modified Rankin Scale", "format": "in vivo, human", "settings": "two week treatment daily, 7 days i.v. with titration followed by 7 days p.o., 10 mg maintenance", "excerpt": "The clinical study investigates the initial efficacy and safety of siponimod administered on top of standard-of-care compared to placebo in patients with ischemic stroke). This is a randomized, doubled-blinded, placebo-controlled, parallel group study of siponimod on top of standard-of-care for ischemic stroke, consisting of 3 epochs: Screening/Baseline, Treatment, and Follow-Up (see FIG. 1).\nThese patients continue to be followed for the remainder of the assessment schedule (Table 3). i.v. Dose Titration\nThe siponimod i.v. dosing regimen is as follows: • Day 1: 0.25 mg over 6 hours (×2), then 0.5 mg over 6 hours, then 0.75 mg over 6 hours for a total Day 1 dose of 1.75 mg • Day 2: 1.25 mg over 6 hours, then 2 mg over 6 hours, then 2.5 mg over 6 hours (×2) for a total Day 2 dose of 8.25 mg • Days 3 through Day 7: 2.5 mg over 6 hours (×4) for a total daily dose of 10 mg. • If patient can swallow then the administration from Day 8 to Day 14 is oral.\nThe modified Rankin Scale (mRS), is a widely-used, clinician-assessed instrument, and is considered the current standard assessment for stroke outcomes by most Health Authorities. It consists of 6 grades of disability, higher scores indicating more severe disability (0=asymptomatic, 6=dead).\nThe mRS score at 90 days after ischemic stroke is the primary endpoint for measuring siponimod efficacy in this study. […]"}, "[13]": {"settings": "in vivo, iv", "excerpt": "as §3"}, "CYP2C9, CYP3A4": {"tested_on": "CYP2C9, CYP3A4", "settings": "humans; cited from earlier work"}},
  "data": [
    {"smiles": "CCc1cc(/C(C)=N/OCc2ccc(C3CCCCC3)c(C(F)(F)F)c2)ccc1CN1CC(C(=O)O)C1", "note": "[siponimod, 1-{4-[(1E)-N-{[4-cyclohexyl-3-(trifluoromethyl)benzyl]oxy}ethanimidoyl]-2-ethylbenzyl}-3-azetidine carboxylic acid]", "values": [
      {"measurement": "safety and tolerability of the 25 mg single dose", "setting": "[1]; 25 mg single dose", "result": "favorable safety and tolerability profile"},
      {"measurement": "single maximum tolerated dose (single MTD)", "setting": "[1]; single dose", "result": 25, "unit": "mg"},
      {"measurement": "acute ALC response on Day 1 of treatment", "setting": "[2]", "result": "dose-dependent decline of ALC"},
      {"measurement": "adverse events at the maximum investigated multiple dose", "setting": "[3]", "result": "symptomatic bradycardia as the only relevant adverse event"},
      {"measurement": "reduction in heart rate vs. placebo", "setting": "[4]; Day 1, either titration regimen", "result": "no statistically significant reduction in heart rate vs. placebo"},
      {"measurement": "reduction in HR", "setting": "[4]; Days 3 to 7, DT 1# and DT 2#", "result": "minor reductions in HR"},
      {"measurement": "heart rates versus placebo", "setting": "[4]; by Day 9 until Day 12, both titration regimens", "result": "comparable to placebo"},
      {"measurement": "bradycardia or AV conduction effects", "setting": "[4]; dose titration regimens DT 1# and DT 2#, 0.25 mg to 10 mg, 12 days, healthy subjects", "result": "Neither DT 1# nor DT 2# resulted in clinically significant bradycardia or AV conduction effects"},
      {"measurement": "heart rates versus placebo", "setting": "[4]; non-titration regimen, 10 mg fixed dose once daily", "result": "considerable separation from placebo throughout the study"},
      {"measurement": "bradyarrhythmia at the starting dose", "setting": "[4]; starting dose 0.25 mg of the DT regimens", "result": "not associated with bradyarrhythmia"},
      {"measurement": "MRI-based efficacy and safety of the dose range", "setting": "[5]; 1.25 mg to 2 mg dose range orally once daily", "result": "close to maximal efficacy, with a good safety profile"},
      {"measurement": "MRI-based efficacy compared to 2 mg", "setting": "[5]; 10 mg orally once daily", "result": "little additional efficacy compared to 2 mg"},
      {"measurement": "safety profile", "setting": "[5]; 10 mg orally once daily", "result": "worse safety profile"},
      {"measurement": "dose and time dependence of pharmacokinetics", "setting": "[6]; human, in vivo", "result": "dose linear and time-independent pharmacokinetics"},
      {"measurement": "bioavailability", "setting": "[6]; human, in vivo, 0.25 mg, oral versus i.v., healthy subjects, read-out: oral bioavailability F %", "result": 84, "unit": "%"},
      {"measurement": "half-life", "setting": "[6]; human, in vivo, other: oral and intravenous (range over both routes), oral and i.v. route, read-out: terminal T1/2", "result": "27 to 33", "unit": "h"},
      {"measurement": "median i.v. Tmax", "setting": "[6]; i.v. infusion over 3 hours and 24 hours", "result": "at the end of the 3 hour and 24 hour infusions"},
      {"measurement": "geometric mean oral Cmax lower than mean i.v. Cmax", "setting": "[6]; oral versus i.v.", "result": "~48", "unit": "%"},
      {"measurement": "magnitude of PD (ALC) effects % Emax, i.v. versus oral", "setting": "[7]", "result": "comparable to the effects after oral doses at the same dose levels"},
      {"measurement": "cardiac safety profile of i.v. infusions", "setting": "[8]", "result": "excellent cardiac safety profile"},
      {"measurement": "Cmax in poor versus extensive metabolizers", "setting": "[9]; CYP2C9 poor metabolizers", "result": "only slightly greater"},
      {"measurement": "Tmax in poor versus extensive metabolizers", "setting": "[9]; CYP2C9 poor metabolizers", "result": "comparable in poor and extensive metabolizers"},
      {"measurement": "AUC compared with reference AUC of extensive metabolizers (CYP2C9*1*1)", "setting": "[9]; first value printed (first-named genotype CYP2C9*2*3)", "result": "approximately 2 fold"},
      {"measurement": "AUC compared with reference AUC of extensive metabolizers (CYP2C9*1*1)", "setting": "[9]; second value printed (second-named genotype)", "result": "~4", "unit": "fold"},
      {"measurement": "time to reduction of peripheral lymphocyte counts after the first dose", "setting": "[10]; after the first dose", "result": "4 to 6", "unit": "h"},
      {"measurement": "recovery of the baseline lymphocyte counts", "setting": "[10]; after treatment withdrawal", "result": "within a week after treatment withdrawal"},
      {"measurement": "crossing of the blood brain barrier", "setting": "[11]", "result": "readily crosses the blood brain barrier"},
      {"measurement": "global functioning measured by modified Rankin Scale (mRS) score on Day 90 after ischemic stroke, compared to placebo", "setting": "[12]", "result": "improved global functioning"},
      {"measurement": "cardiovascular effects in i.v. cardiovascular safety studies", "setting": "[13]", "result": "Cmax-related transient cardiovascular effects"},
      {"measurement": "enzymes eliminating siponimod by metabolism", "setting": "CYP2C9, CYP3A4", "result": "mainly by CYP2C9, followed by CYP3A4"}
    ]}
  ]
}
